Here are results for 14 compounds from ChEMBL document CHEMBL1158406, “Design of novel quinazoline derivatives and related analogues as potent and selective ALK5 inhibitors” (Bioorg Med Chem Lett, 2009).

Data set [1] addresses T1, TGF-beta receptor type-1 (Homo sapiens, UniProt P36897).
T1 sequence (P36897 whole entry): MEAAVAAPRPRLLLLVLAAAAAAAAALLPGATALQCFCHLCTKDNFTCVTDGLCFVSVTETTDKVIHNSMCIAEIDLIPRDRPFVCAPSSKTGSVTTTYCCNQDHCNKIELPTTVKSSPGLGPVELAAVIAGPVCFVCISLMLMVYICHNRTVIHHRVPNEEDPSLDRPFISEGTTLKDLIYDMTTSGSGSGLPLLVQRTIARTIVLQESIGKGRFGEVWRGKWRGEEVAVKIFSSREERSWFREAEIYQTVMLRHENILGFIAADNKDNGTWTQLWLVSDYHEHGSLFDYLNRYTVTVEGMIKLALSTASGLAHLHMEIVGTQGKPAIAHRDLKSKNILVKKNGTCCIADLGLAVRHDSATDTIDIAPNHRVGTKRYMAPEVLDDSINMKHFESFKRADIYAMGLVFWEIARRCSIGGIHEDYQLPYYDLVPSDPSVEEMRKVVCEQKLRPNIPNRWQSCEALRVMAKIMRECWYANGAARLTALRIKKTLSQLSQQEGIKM
In words: Inhibition of human ALK5 kinase expressed in Sf9 cells.

The target of data set [2] is Mitogen-activated protein kinase 14 (Homo sapiens, UniProt Q16539). Put plainly: Inhibition of GST-fused p38alpha.
Sequence of Mitogen-activated protein kinase 14 (Q16539 whole entry, the tested form may be a part): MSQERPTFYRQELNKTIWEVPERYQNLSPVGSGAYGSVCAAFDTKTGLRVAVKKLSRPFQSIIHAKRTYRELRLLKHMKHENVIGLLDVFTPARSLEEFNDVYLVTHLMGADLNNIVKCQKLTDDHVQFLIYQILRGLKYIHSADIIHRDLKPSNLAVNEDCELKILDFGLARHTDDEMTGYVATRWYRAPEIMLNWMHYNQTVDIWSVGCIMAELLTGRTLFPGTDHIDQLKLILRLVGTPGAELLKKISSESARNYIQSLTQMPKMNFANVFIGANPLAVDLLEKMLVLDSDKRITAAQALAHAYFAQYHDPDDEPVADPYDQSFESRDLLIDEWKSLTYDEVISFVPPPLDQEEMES
Data set [3] addresses T1, TGF-beta receptor type-1. Put plainly: Inhibition of TGF-beta-induced ALK5 in human HepG2 cells by luciferase assay. Type of data set: cell-based.
A short description of data set [4]: Bioavailability in rat at 5 mg/kg, po. The class given is ADME, organism-based. Particulars: in vivo.
Data set [5] in a line: AUC in rat at 5 mg/kg, po. Type of data set: ADME, organism-based. The arrangement: dose 5 mg/kg, route oral. Conditions: plasma.
Data set [6] concerns Rattus norvegicus. In words: Inhibition of dimethylnitreosamine-induced collagen IA1 mRNA expression in rat liver at 5 mg/kg, po bid. Type of data set: functional.
Data set [7] has as its system Rattus norvegicus. In words: Inhibition of dimethylnitreosamine-induced collagen IA1 mRNA expression in rat liver at 10 mg/kg, po bid. Type of data set: functional.

With `Cc1cccc(-c2nc(Nc3ccc4[nH]ncc4c3)c3ccccc3n2)n1`, the IC50 (usually the point on the concentration scale where inhibition reaches its midpoint) is 25 nM at TGF-beta receptor type-1 [1], > 10000 nM in data set [2] and 90 nM on TGF-beta receptor type-1 [3].

In the case of `Cc1csc(-c2nc(Nc3ccncc3)c3ccccc3n2)n1`, the IC50 on TGF-beta receptor type-1 [1] is 20 nM; in data set [2] it was > 15000 nM; on TGF-beta receptor type-1 [3] it was 342 nM.

In the case of `Cc1cccc(-c2nc(Nc3ccc4c(cnn4C)c3)c3ccccc3n2)n1`, the values for the IC50 (on TGF-beta receptor type-1 [1]; in data set [2]; on TGF-beta receptor type-1 [3]) were 588 nM, > 10000 nM and 794 nM, respectively.

Regarding `Cc1cccc(-c2nc(Nc3ccc4ncsc4c3)c3ccccc3n2)n1`, the half-maximal inhibitory concentration (IC50) against TGF-beta receptor type-1 [1] is 646 nM; in data set [2], > 10000 nM; against TGF-beta receptor type-1 [3], > 5000 nM.

In the case of `Cc1cccc(-c2nc(C)cc(Nc3ccncc3)n2)n1`, the half-inhibitory concentration (IC50) against TGF-beta receptor type-1 [1] is 93 nM; at TGF-beta receptor type-1 [3], 745 nM.

For `Cc1cccc(-c2nc(Nc3ccncc3)c3sccc3n2)n1`, the concentration for half-maximal inhibition (IC50) came out at 22 nM on TGF-beta receptor type-1 [1] and 60 nM at TGF-beta receptor type-1 [3].

With `Cc1cc(Nc2nc(-c3cccc(C)n3)nc3ccccc23)ccn1`, the IC50 against TGF-beta receptor type-1 [1] was 199 nM; in data set [2], > 10000 nM; against TGF-beta receptor type-1 [3], 1020 nM.

On to `Cc1cccc(-c2nc(Nc3ccc4[nH]nnc4c3)c3ccccc3n2)n1`, for which the 50% inhibitory concentration (IC50) against TGF-beta receptor type-1 [1] is 3720 nM; in data set [2] it was > 10000 nM; at TGF-beta receptor type-1 [3], > 5000 nM.

For the compound `Cc1cccc(-c2nc(Nc3cccc(C(N)=O)c3)c3ccccc3n2)n1`, the IC50 against TGF-beta receptor type-1 [1] was 263 nM; in data set [2], > 10000 nM; against TGF-beta receptor type-1 [3], 545 nM.

Consider `Cc1cccc(-c2nc(Nc3ccncc3)c3c(C)csc3n2)n1`, for which the figures for the half-maximal inhibitory concentration (IC50) at TGF-beta receptor type-1 [1] and against TGF-beta receptor type-1 [3] were 16 nM and 318 nM, respectively.

As to `c1ccc(-c2nc(Nc3ccncc3)c3ccccc3n2)cc1`, the results for the half-maximal inhibitory concentration (IC50) (at TGF-beta receptor type-1 [1]; in data set [2]; on TGF-beta receptor type-1 [3]) were 194 nM, 1270 nM and 2470 nM, respectively.

Consider `Cc1cccc(-c2nc(Nc3ccncc3)c3ccccc3n2)n1`, for which the 50% inhibitory concentration (IC50) was 25 nM on TGF-beta receptor type-1 [1], 6720 nM in data set [2] and 95 nM at TGF-beta receptor type-1 [3]. For the same compound, the bioavailability (in general, dose-corrected exposure relative to a reference, in per cent) in data set [4] came out at 40%. For the same compound, in data set [5], the exposure (AUC) (usually the area under the concentration-time curve, a measure of exposure) was 524 ng·h/mL. Moreover, the inhibition in vivo – broadly, the share of the control response that was lost under treatment – at 5 mg/kg in the data set on Rattus norvegicus [6] was 66%. In the data set on Rattus norvegicus [7], the inhibition in vivo at 10 mg/kg is 73%.

For `Clc1cccc(-c2nc(Nc3ccncc3)c3ccccc3n2)c1`, the IC50 was 49 nM at TGF-beta receptor type-1 [1], > 15000 nM in data set [2] and 1610 nM at TGF-beta receptor type-1 [3].

As for `Cc1cccc(-c2nc(Nc3ccncn3)c3ccccc3n2)n1`, the IC50 is 40 nM on TGF-beta receptor type-1 [1], > 10000 nM in data set [2] and 60 nM on TGF-beta receptor type-1 [3].
